According to article PMC7802075 (ACS Infectious Diseases, 2020):
Where a SMILES comes first, the peptide text is derived from it.

Molecular target: T1, LmjIPCS (inositol phosphorylceramide synthase from L. major) (Leishmania major, UniProt E9AFX2)
T1 sequence (E9AFX2 1-338): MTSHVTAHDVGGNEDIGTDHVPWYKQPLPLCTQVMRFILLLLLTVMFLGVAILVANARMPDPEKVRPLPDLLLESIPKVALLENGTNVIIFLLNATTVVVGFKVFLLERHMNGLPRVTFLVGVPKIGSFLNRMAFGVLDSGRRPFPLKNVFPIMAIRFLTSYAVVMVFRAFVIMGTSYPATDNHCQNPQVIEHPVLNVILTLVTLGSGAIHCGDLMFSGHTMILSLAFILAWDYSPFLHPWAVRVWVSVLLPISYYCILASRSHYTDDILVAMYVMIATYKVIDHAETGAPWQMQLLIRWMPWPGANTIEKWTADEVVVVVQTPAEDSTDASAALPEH
Assay: biochemical
Format: biochemical
Set-up: inhibition: dose or concentration left out as unconfirmed
Conditions: not given

Row | Molecule | 20mM inhibition LmjIPCS
1 | COCCOC(=O)C1=C(C)NC(C)=C(C(=O)OC(C)C)C1c1cccc([N+](=O)[O-])c1 (centres unmarked) [NIMODIPINE] | 36%
2 | CN1CCC(=C2c3ccccc3CC(=O)c3sccc32)CC1 [KETOTIFEN] | 36%
3 | CCOC(=O)C1=C(O)C(=O)N(Cc2ccccc2)C1 | -1.71%
4 | CNC(Cc1c[nH]c2ccccc12)C(=O)O (centres unmarked) [ABRINE (L)] | -1%
5 | COc1ccc2cc1Oc1ccc(cc1)C[C@H]1c3c(cc4c(c3Oc3cc5c(cc3OC)CCN(C)[C@@H]5C2)OCO4)CCN1C [CEPHARANTHINE] | 59%
6 | C=C(C)[C@H]1Cc2c(ccc3c2O[C@@H]2COc4cc(OC)c(OC)cc4[C@@H]2C3=O)O1 [ROTENONE] | 43%
7 | CNC(=N)NCCC[C@H](N)C(=O)O [TARGININE] | -2%
8 | CCN1CCN(C(=O)N[C@@H](C(=O)N[C@@H]2C(=O)N3[C@@H]2SC(C)(C)[C@@H]3C(=O)O)c2ccccc2)C(=O)C1=O [PIPERACILLIN] | 60%
9 | O=C(CCCN1CC=C(n2c(=O)[nH]c3ccccc32)CC1)c1ccc(F)cc1 [DROPERIDOL] | 56%
10 | CCCCOc1ccc(C(=O)CCN2CCCCC2)cc1 [DYCLONINE] | 61%
11 | COC(=O)[C@H]1[C@H]2C[C@H]3c4[nH]c5cc(OC)ccc5c4CCN3C[C@H]2C[C@@H](OC(=O)c2cc(OC)c(OC)c(OC)c2)[C@@H]1OC [ISORESERPINE] | 47%
12 | CCN(CC)CCCC(C)Nc1ccnc2cc(Cl)ccc12 (centres unmarked) [CHLOROQUINE] | 38%
13 | CN1[C@H]2C[C@H](OC(=O)[C@H](CO)c3ccccc3)C[C@@H]1[C@@H](O)C2 [ANISODAMINE] | 16%
14 | CO/N=C(\C(=O)N[C@@H]1C(=O)N2C(C(=O)OCOC(=O)C(C)(C)C)=C(/C=C\c3scnc3C)CS[C@H]12)c1csc(N)n1 [CEFDITORIN PIVOXIL] | 10%
15 | CC1(C)S[C@@H]2[C@H](NC(=O)C(C(=O)O)c3ccccc3)C(=O)N2[C@H]1C(=O)O (some centres unmarked) [CARBENICILLIN] | 52%
16 | O=c1c2ccccc2[se]n1-c1ccccc1 [EBSELEN] | 42%
17 | NC(CO)C(=O)NNCc1ccc(O)c(O)c1O (centres unmarked) [BENSERAZIDE] | 43%
18 | C[C@@H]1C[C@H]2[C@@H]3C[C@H](F)C4=CC(=O)C=C[C@]4(C)[C@@]3(F)[C@@H](O)C[C@]2(C)[C@@]1(O)C(=O)COC(=O)C(C)(C)C [FLUMETHAZONE PIVALATE] | 14%
19 | O=C1OC(=O)[C@H]2[C@@H]1[C@@H]1CC[C@H]2O1 [NORCANTHARIDIN] | 1.76%
20 | CC(C)(Oc1ccc(Cl)cc1)C(=O)O [CLOFIBRIC ACID] | 56%
21 | NCC(O)CC(=O)O (centres unmarked) [AMINOHYDROXYBUTYRIC ACID] | 4%
22 | C[C@@H]1C[C@H]2[C@@H]3CCC4=CC(=O)C=C[C@]4(C)[C@@]3(F)[C@@H](O)C[C@]2(C)[C@@]1(O)C(=O)CO [DEXAMETHASONE] | 44%

Same assay, conditions: NINDS set screen, compound at 20mM (so in the source)

Row | 20mM inhibition LmjIPCS | Molecule
23 | 15% | COc1ccc(CCC(=O)c2c(O)cc(O[C@@H]3O[C@H](CO)[C@@H](O)[C@H](O)[C@H]3O[C@@H]3O[C@@H](C)[C@H](O)[C@@H](O)[C@H]3O)cc2O)cc1O [NEOHESPERIDIN DIHYDROCHALCONE]

Same assay, conditions: NINDS set screen, single concentration printed as 20mM

Row | 20mM inhibition LmjIPCS | Molecule
24 | 52% | CAPREOMYCIN
25 | 47% | CCCCC(CC)CNC(=N)NC(=N)NCCCCCCNC(=N)NC(=N)NCC(CC)CCCC (centres unmarked) [ALEXIDINE]
26 | 65% | CC(C)(C)CC(C)(C)c1ccc(O)c(Cc2ccc(Cl)cc2Cl)c1 [CLOFOCTOL]
27 | 35% | Nc1ccc(S(=O)(=O)Nc2nccs2)cc1 [SULFATHIAZOLE]
28 | 34% | COc1ccc(C(=O)c2ccccc2)c(O)c1 [OXYBENZONE]
29 | 44% | CS(=O)(=O)OCCCCOS(C)(=O)=O [BUSULFAN]
30 | 56% | CCn1cc(C(=O)O)c(=O)c2cc(F)c(N3CCNCC3)nc21 [ENOXACIN]

Same assay, conditions: NINDS set screen; read-out: inhibition LmjIPCS

Row | inhibition | Molecule
31 | 17% | C=CCSCC=C [DIALLYL SULFIDE]
32 | 16% | C[C@H]1C[C@@H]2[C@H]([C@@H](O)C[C@@]3(C)[C@H]2CC[C@]3(O)C(=O)CO)[C@@]2(C)C=CC(=O)C=C12 [METHYLPREDNISOLONE]
33 | -17% | CC[C@]12CCCN3CCc4c(n(c5ccccc45)[C@@](O)(C(=O)OC)C1)[C@@H]32 [VINCAMINE]
34 | 21% | O=C1c2ccccc2C(=O)C1c1ccccc1 [PHENINDIONE]
35 | 16% | CN(C)CCOC(=O)C(c1ccccc1)C1(O)CCCC1 (centres unmarked) [CYCLOPENTOLATE]

Same assay, conditions: read-out: 20mM inhibition LmjIPCS

Row | Molecule | inhibition at 20000 µM
36 | N[C@@H](Cc1ccccc1)C(=O)N[C@@H](Cc1ccc(O)cc1)C(=O)O [PHENYLALANYLTYROSINE] (H-Phe-Tyr-OH) | 7.42%
37 | CC(C)NCC(O)COc1cccc2[nH]ccc12 (centres unmarked) [PINDOLOL] | 16%
38 | CCCC(=O)O[C@]1(C(=O)CO)CC[C@H]2[C@@H]3CCC4=CC(=O)CC[C@]4(C)[C@H]3[C@@H](O)C[C@@]21C [HYDROCORTISONE BUTYRATE] | 5.61%
39 | OCc1c[nH]c2ccccc12 [INDOLE-3-CARBINOL] | 11%
40 | O=C1O[C@H](CO)[C@@H](O)[C@H](O)[C@H]1O [GLUCONOLACTONE] | 0.589%
41 | Oc1ccc(O)cc1 [HYDROQUINONE] | -2.33%
42 | O=C(O)c1cc(=O)c2ccccc2[nH]1 [KYNURENIC ACID] | 6%
43 | CC(=O)OCC(=O)[C@@]1(O)CC[C@H]2[C@@H]3CCC4=CC(=O)C=C[C@]4(C)[C@H]3[C@@H](O)C[C@@]21C [PREDNISOLONE ACETATE] | 25%
44 | C[C@H]1C(=O)O[C@@H]2CCN3CC=C(COC(=O)[C@](C)(O)[C@]1(C)O)[C@H]23 [MONOCROTALINE] | 2%
45 | CC(=O)OC/C=C(C)/C=C/C=C(C)/C=C/C1=C(C)CCCC1(C)C [RETINYL ACETATE] | 9%
46 | C[N+]1(C)CCCC(OC(=O)C(O)(c2ccccc2)c2ccccc2)C1 (centres unmarked) [MEPENZOLATE BROMIDE] | 16%
47 | Oc1noc2c1CCNC2 [GABOXADOL] | -24%
48 | CCOC(=O)[C@H](CCc1ccccc1)N[C@@H](C)C(=O)N1[C@H](C(=O)O)C[C@H]2CCCC[C@@H]21 [TRANDOLAPRIL] | 7.54%
49 | CSCC[C@H](NC=O)C(=O)N[C@@H](CC(C)C)C(=O)N[C@@H](Cc1ccccc1)C(=O)O | 19%
50 | NCc1ccc(S(N)(=O)=O)cc1 [MAFENIDE] | 11%
51 | N[C@H](CO)Cc1ccccc1 [L-PHENYLALANINOL] | 24%
52 | NCCc1c[nH]cn1 [HISTAMINE] | 4.39%
53 | NC1(C(=O)O)CCCC1 [CYCLOLEUCINE] | 12%
54 | CC[C@@]1(O)C(=O)OCc2c1cc1n(c2=O)Cc2cc3ccccc3nc2-1 [CAMPTOTHECIN] | 1.2%
55 | COc1ccc2c(c1)[nH]c1c(C)nccc12 [HARMINE] | 32%
56 | CN[C@H](CC(C)C)C(=O)N[C@H]1C(=O)N[C@@H](CC(N)=O)C(=O)N[C@H]2C(=O)N[C@H]3C(=O)N[C@H](C(=O)N[C@H](C(=O)O)c4cc(O)cc(O)c4-c4cc3ccc4O)[C@H](O)c3ccc(c(Cl)c3)Oc3cc2cc(c3O[C@@H]2O[C@H](CO)[C@@H](O)[C@H](O)[C@H]2O[C@H]2C[C@](C)(N)[C@H](O)[C@H](C)O2)Oc2ccc(cc2Cl)[C@H]1O [VANCOMYCIN] | 31%

Same assay, conditions: read-out: inhibition LmjIPCS

Row | inhibition | Molecule
57 | 29% | CC1(C)S[C@@H]2[C@H](NC(=O)[C@H](N)c3ccccc3)C(=O)N2[C@H]1C(=O)O [AMPICILLIN]
58 | -2.81% | CCCCc1nc(Cl)c(CO)n1Cc1ccc(-c2ccccc2-c2nn[nH]n2)cc1 [LOSARTAN]
59 | 1.66% | CC1(C)[C@@H](OC(=O)CCC(=O)O)CC[C@]2(C)[C@H]3C(=O)C=C4[C@@H]5C[C@@](C)(C(=O)O)CC[C@]5(C)CC[C@@]4(C)[C@]3(C)CC[C@@H]12 [CARBENOXOLONE]
60 | 19% | COc1ccc2c(c1OC)C(=O)O[C@@H]2[C@H]1c2c(cc3c(c2OC)OCO3)CCN1C [NOSCAPINE]
61 | 1.42% | C[C@]12CC[C@@H]3c4ccc(O)cc4CC[C@H]3[C@@H]1C[C@@H](O)[C@@H]2O [ESTRIOL]
62 | 18% | COC(=O)Nc1nc2ccc(C(=O)c3ccccc3)cc2[nH]1 [MEBENDAZOLE]
63 | 17% | COc1c2ccoc2cc2oc(=O)ccc12 [BERGAPTEN]
64 | -4% | C[C@@H]1C[C@H]2[C@@H]3CCC4=CC(=O)C=C[C@]4(C)[C@@]3(F)[C@@H](O)C[C@]2(C)[C@@]1(O)C(=O)CO [DEXAMETHASONE]

Second part, the molecule before the results:

Row | Molecule | inhibition
65 | NCCCC(=O)O [gamma-AMINOBUTYRIC ACID] | -20%
66 | Nc1nc(=O)c2nc(CNc3ccc(C(=O)N[C@@H](CCC(=O)O)C(=O)O)cc3)cnc2[nH]1 [FOLIC ACID] | 5.56%
67 | COc1cc2c(cc1OC)[C@@H]1Cc3ccc(OC)c(OC)c3CN1CC2 [TETRAHYDROPALMATINE] | 29%

Same assay, conditions: screening of NINDS set, sheet Screen 1; read-out: inhibition LmjIPCS

Row | inhibition | Molecule
68 | 7% | CCCOc1ccccc1-c1nc2nn[nH]c2c(=O)[nH]1 [ZAPRINAST]
69 | 2% | CC1(C)S[C@@H]2[C@H](N3C(=O)[C@@H](c4ccccc4)NC3(C)C)C(=O)N2[C@H]1C(=O)O [HETACILLIN]
70 | 3% | O=c1oc2cc(O)ccc2s1 [TIOXOLONE]
71 | 7% | Nc1ccc(C(=O)NCC(=O)O)cc1 [AMINOHIPPURIC ACID]
72 | 10% | COc1ccc(C2C(=O)c3ccccc3C2=O)cc1 [ANISINDIONE]
73 | 2% | CCOC(=O)NNc1nncc2ccccc12 [TODRALAZINE]

Same assay, conditions: single concentration 20mM as printed; screening of NINDS set, sheet Screen 1

Row | 20mM inhibition LmjIPCS | Molecule
74 | 8% | COc1ccc2c(c1)CC[C@@H]1[C@@H]2CC[C@]2(C)[C@@H](O)[C@H](O)C[C@@H]12 [ESTRIOL METHYL ETHER]
